From patent publication US20230167408A1, “METHODS AND COMPOSITIONS FOR MAINTAINING AND EXPANDING HEMATOPOIETIC STEM CELLS” (Trailhead Biosystems Inc., priority 2021, published 2023)
“Also recorded” adds a separate entry of the source.

What was measured:
Format in all cases: cell-based, human
[1] = system: CD34+ population of cells isolated from cord blood; assay: HD-DoE effector experiments, gene expression modeling after 3-day treatment; conditions: for factor contribution (impact) on expression of CRHBP: 8-factor experiment tropoelastin, lipid mixture, propionate, biotin, geltrex, N-acetyl cysteine, prostaglandin E2, VPA, FIG. 3/4; for factor contribution on expression of MEG3: same 8-factor experiment optimized for maximum MEG3, FIG. 2; for factor contribution on expression of CRHBP: Yhhu 3792, fibronectin, TPCA-1, GW9662, Z-vad-fmk, VEGF, FIG. 5
Text: This example utilizes a method of High-Dimensional Design of Experiments (HD-DoE), as previously described in Bukys et al. (2020) Iscience 23:101346. The method employs computerized design geometries to simultaneously test multiple process inputs and offers mathematical modeling of a deep effector/response space. The method allows for finding combinatorial signaling inputs that control a complex process, such as during cell differentiation. It allows testing of multiple plausible critical process parameters, as such parameters impact output responses, such as gene expression. Because gene expression provides hallmark features of the phenotype of, for example, a human cell, the method can be applied to identify, and understand, which signaling pathways control cell fate. In the current example, the HD-DOE method was applied with the intent to find conditions for expansion and maintenance of HSCs.
Specifically, to develop the HSC recipe, the impact of agonists and antagonists of multiple signaling pathways (herein called effectors) were tested on expression of two sets of 53 pre-selected genes after a 3-day treatment. Specific genes in the measured subset are highly enriched in HSC and include CRHBP, MLLT3, MEG3, MECOM, HOXA5 and GATA2. The effectors chosen include small molecules or proteins, some of which are used during in vitro expansion of HSC.
To test the effectors, experiments with at least 8 factors were designed that can assess the response of cells to 48 or more different combinations of effectors in a range of concentrations. To analyze the models, we focused on expression of genes that are either expressed or enriched in primitive HSC including CRHBP, GATA2, MLLT3 and MEG3. The impact of each effector on gene expression level is defined by a parameter called factor contribution that is calculated for each effector during the modeling. All the experiments were conducted using a CD34^+ population of cells isolated from cord blood.
To identify the recipe for HSC expansion, cells were treated with various effectors for 3 days in media containing stem cell factor (SCF) and thrombopoietin (TPO) and the gene expression of cells was modeled. […] Additionally, on this model we observed NOTCH1 upregulation and MPO downregulation. […] Previous studies have shown that NOTCH1 activation increases HSC self-renewal in vivo (Stier et al. (2002) Blood 99:2369-78).
To further improve the recipe for HSC maintenance and expansion, additional HD-DoE experiments were performed. […] The goal was to evaluate further factors to possibly increase the complexity of the signaling inputs to attain effective fate control. As previously, we focused on expression of HSC enriched genes mentioned earlier. An 8-factor experiment was performed, testing tropoelastin, lipid mixture, propionate, biotin, geltrex, N-acetyl cysteine, prostaglandin E2, and VPA. Similar to the previous experiment, CD34^+ cells were treated with 48 conditions of combinations of the factors for 3 days and gene expression analysis and modeling was performed.
To further improve the recipe for HSC maintenance and expansion, additional HD-DoE experiments were performed. Another 8-factor experiment was performed consisting of LPA, Yhhu 3792, fibronectin, TPCA-1, GW9662, Z-vad-fmk, VEGF and activin A. Similarly to the previous experiment, CD34^+ cells were treated with 48 conditions of combinations of the factors for 3 days and then gene expression analysis experiments were conducted.

[2] = system: CD34+ population of cells isolated from cord blood; assay: Factor criticality analysis (dynamic profile analysis) of HSC expansion recipe; parameters: GATA2 expression level / MEG3 expression level / CRHBP expression level: unit not given here
Text: In this example, to assess the impact of elimination of each validated factor identified as described in Example 1, dynamic profile analysis was used and compared the expression level of genes of interest in the absence of each finalized factor while others are kept present. […] The results of the criticality analysis for the factors FICZ, LPA, Vit. C and Activin A are shown in FIG. 6A-B. The results of the criticality analysis for VPA are shown in FIG. 7A-B. The results of the criticality analysis for Yhhu 3792 are shown in and FIG. 8A-B.
For the HSC expansion recipe, each of the six finalized factors were removed while other five factors were present and the expression levels of GATA2, HOXA5, CRHBP was assessed compared to the presence of all […]. Because SCF and TPO are cytokines impacting cell growth and survival, our recipe included these cytokines as well. When FICZ was removed, values for GATA2 expression decreased from 642 to 512, while HOXA5 and MEG3 expression was unchanged. […] Removal of Vit.C decreased the level of MEG3 from 82 to 53. Activin A is a critical factor for MEG3, since its removal decreases MEG3 levels from 81 to 40.

CD34+ cells = assay: Culture of CD34+ cells in the presence of commonly used cytokines
Protocol: To further validate the HSC culture recipe described in Example 1, CD34+ cord blood derived cells were grown for 7 days in media comprising the ingredients shown in Table 1 and flow cytometry analysis was used to assess markers of the LT-HSC state. Markers tested included Lineage (CD3, CD14, CD16, CD19, CD20, CD56), CD34, CD38, CD45RA and CD90. Additionally, cells were grown in media with SCF and TPO as a control, commonly used by others to promote HSC expansion. […] 100,000 cells were plated for each condition.

[3] = named factor removed, other factors present
[4] = 8-factor experiment with tropoelastin ... VPA
[5] = 8-factor experiment with tropoelastin ... VPA optimized for maximum GATA2, FIG. 4
[6] = 8-factor experiment LPA, activin A, 3 days
[7] = 8-factor experiment LPA, FICZ, Pyrintegrin, Laminin521, G0693, Vit.C, G-SCF, activin A, 3 days, media with SCF and TPO, FIG. 1/2

## CC(=O)N[C@@H](CS)C(=O)O [N-acetyl cysteine]
[1]; 3 days
  factor contribution (impact) on expression of CRHBP: < 1

## L-ascorbic acid phosphate sesquimagnesium salt hydrate [Vit.C]
[1]; 8-factor experiment LPA, FICZ, Pyrintegrin, Laminin521, G0693, Vit.C, G-SCF, activin A, 3 days, media with SCF and TPO, FIG. 1/2, hydrate
  factor contribution (impact) on expression of GATA2: 12
[1]; 8-factor experiment LPA, FICZ, Pyrintegrin, Laminin521, G0693, Vit.C, G-SCF, activin A, 3 days, media with SCF and TPO, FIG. 1/2, listed as Vit. C, hydrate
  factor contribution (impact) on expression of GATA2: positive impact
[1]
  factor contribution on expression of MEG3: 16
[2]; all finalized factors present
  MEG3 expression level: 82
[2]; [3]
  MEG3 expression level: 53

## CCCCC[C@H](O)/C=C/[C@H]1[C@H](O)CC(=O)[C@@H]1C/C=C\CCCC(=O)O [prostaglandin E2]
[1]; [4]
  effect of treatment on other HSC enriched genes: downregulates
[1]; [5]
  factor contribution (impact) on expression of GATA2: 25

## CCCC(CCC)C(=O)O [VPA, Valproic acid]
[1]; 8-factor experiment with tropoelastin ... VPA, FIG. 4
  impact on expression of MEG3: positive impact
[2]; all finalized factors present
  CRHBP expression level: 285
  MEG3 expression level: 106
[2]; [3]
  CRHBP expression level: 138
  GATA2 expression level: reduced
  MEG3 expression level: 52

## lysophosphatidic acid [LPA]
[1]; [6]
  factor contribution on expression of CRHBP: 8
[2]; all finalized factors present
  GATA2 expression level: 644
[2]; [3]
  GATA2 expression level: 525

## CCC(=O)O [Propionate, propionate]
[1]; 3 days
  factor contribution (impact) on expression of CRHBP: 8

## IL6: commonly used cytokine to expand HSC
CD34+ cells
  lineage bias of CD34+ cells cultured in the presence of the cytokine: induction of a myeloid bias

## O=C(O)CCCC[C@@H]1SC[C@@H]2NC(=O)N[C@@H]21 [biotin]
[1]; 3 days
  factor contribution (impact) on expression of CRHBP: 5

## O=Cc1c2c(cc3c1=Nc1ccccc1-3)=Nc1ccccc1-2 [FICZ, 6-Formylindolo[3,2-b]carbazole]
[1]; [7]
  factor contribution (impact) on expression of GATA2: 21
[1]; 8-factor experiment LPA, FICZ, Pyrintegrin, Laminin521, G0693, Vit.C, G-SCF, activin A, 3 days, media with SCF and TPO, FIG. 1/2, listed as FCIZ
  factor contribution (impact) on expression of GATA2: positive impact
[2]; all finalized factors present
  GATA2 expression level: 642
[2]; [3]
  GATA2 expression level: 512
  HOXA5 expression level: unchanged
  MEG3 expression level: unchanged

## fibronectin
[1]; [6]
  factor contribution on expression of CRHBP: 18

## COc1cccc(Oc2cccc3nc(Nc4ccc(C(C)C)cc4)nc(N)c23)c1 [Yhhu 3792]
[1]; [6]
  factor contribution on expression of CRHBP: 19
[2]; all finalized factors present
  CRHBP expression level: 202
[2]; [3]
  CRHBP expression level: 169

B1: Activin A: TGFb pathway agonist (protein, UniProt P08476 311-426, looked up)
Inhibin beta A chain: GLECDGKVNICCKKQFFVSFKDIGWNDWIIAPSGYHANYCEGECPSHIAGTSGSSLSFHSTVINHYRMRGHSPFANLKSCCVPTKLRPMSMLYYDDGQNIIKKDIQNMIVEECGCS
modifications: Inhibin beta A chain
notes: TGFb pathway agonist
[1]; [7]
  factor contribution (impact) on expression of GATA2: modest; also recorded: positive impact
[1]; [6]
  factor contribution on expression of CRHBP: 26
[1]
  factor contribution on expression of MEG3: 23
[2]; all finalized factors present
  MEG3 expression level: 81
[2]; [3]
  GATA2 expression level: positive impact
  HOXA5 expression level: positive impact
  MEG3 expression level: 40

B2: tropoelastin: effector tested in the 8-factor experiment (protein, UniProt P15502 27-786, looked up)
Elastin: GGVPGAIPGGVPGGVFYPGAGLGALGGGALGPGGKPLKPVPGGLAGAGLGAGLGAFPAVTFPGALVPGGVADAAAAYKAAKAGAGLGGVPGVGGLGVSAGAVVPQPGAGVKPGKVPGVGLPGVYPGGVLPGARFPGVGVLPGVPTGAGVKPKAPGVGGAFAGIPGVGPFGGPQPGVPLGYPIKAPKLPGGYGLPYTTGKLPYGYGPGGVAGAAGKAGYPTGTGVGPQAAAAAAAKAAAKFGAGAAGVLPGVGGAGVPGVPGAIPGIGGIAGVGTPAAAAAAAAAAKAAKYGAAAGLVPGGPGFGPGVVGVPGAGVPGVGVPGAGIPVVPGAGIPGAAVPGVVSPEAAAKAAAKAAKYGARPGVGVGGIPTYGVGAGGFPGFGVGVGGIPGVAGVPGVGGVPGVGGVPGVGISPEAQAAAAAKAAKYGAAGAGVLGGLVPGAPGAVPGVPGTGGVPGVGTPAAAAAKAAAKAAQFGLVPGVGVAPGVGVAPGVGVAPGVGLAPGVGVAPGVGVAPGVGVAPGIGPGGVAAAAKSAAKVAAKAQLRAAAGLGAGIPGLGVGVGVPGLGVGAGVPGLGVGAGVPGFGAGADEGVRRSLSPELREGDPSSSQHLPSTPSSPRVPGALAAAKAAKYGAAVPGVLGGLGALGGVGIPGGVVGAGPAAAAAAAKAAAKAAQFGLVGAAGLGGLGVGGLGVPGVGGLGGIPPAAAAKAAKYGAAGLGGVLGGAGQFPLGGVAARPGFGLSPIFPGGACLGKACGRKRK
[1]; [4]
  effect of treatment on other HSC enriched genes: downregulates
[1]; [5]
  factor contribution (impact) on expression of GATA2: 17

B3: G-CSF: commonly used cytokine to expand HSC (protein, UniProt P09919 31-207, looked up)
Granulocyte …: TPLGPASSLPQSFLLKCLEQVRKIQGDGAALQEKLVSECATYKLCHPEELVLLGHSLGIPWAPLSSCPSQALQLAGCLSQLHSGLFLYQGLLQALEGISPELGPTLDTLQLDVADFATTIWQQMEELGMAPALQPTQGAMPAFASAFQRRAGGVLVASHLQSFLEVSYRVLRHLAQP
CD34+ cells
  lineage bias of CD34+ cells cultured in the presence of the cytokine: induction of a myeloid bias
